These results are taken from the supplement of paper PMC10307832.

Experiment in all cases: relative viability (nuclei count vs DMSO), 5 days (fraction); higher = more cells survive
Compound in the test “AZD5582 + Pictilisib”: C[C@@H](C(=O)N[C@@H](C1CCCCC1)C(=O)N2CCC[C@H]2C(=O)N[C@@H]3[C@@H](CC4=CC=CC=C34)OCC#CC#CCO[C@@H]5CC6=CC=CC=C6[C@@H]5NC(=O)[C@@H]7CCCN7C(=O)[C@H](C8CCCCC8)NC(=O)[C@H](C)NC)NC [AZD5582] + CS(=O)(=O)N1CCN(Cc2cc3nc(-c4cccc5[nH]ncc45)nc(N4CCOCC4)c3s2)CC1 [Pictilisib] (partner 1 µM)
A digest of the protocol: (§1)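 Values are medians from duplicate plates. Each reflects relative viability, defined as the nuclei count of treated wells over that of vehicle wells. Lung cancer cell lines in 1536-well plates were pin-tool dosed one day after seeding with one drug alone or with a fixed anchor-drug dose plus five library-drug doses (not always all listed) in √10 steps, then fixed, stained and imaged at 4× after 5 days.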

Compound in the test “Temozolomide + Olaparib”: Cn1nnc2c(C(N)=O)ncn2c1=O [Temozolomide] + O=C(c1cc(Cc2n[nH]c(=O)c3ccccc23)ccc1F)N1CCN(C(=O)C2CC2)CC1 [Olaparib] (partner 8 µM)
The procedure, abridged: as §1

Compound in test [1]: Cn1nnc2c(C(N)=O)ncn2c1=O [Temozolomide] + CC(C)C[C@H](NC(=O)[C@H](Cc1ccccc1)NC(=O)c1cnccn1)B(O)O [Bortezomib] (partner 0.002 µM)
The procedure, abridged:
as §1

Compound in test [2]: Cn1nnc2c(C(N)=O)ncn2c1=O [Temozolomide] + C[C@]1(O)C[C@@H](c2nc(-c3ccc4ccc(-c5ccccc5)nc4c3)c3c(N)nccn32)C1 [Linsitinib] (partner 1 µM)
The procedure, abridged:
as §1

As to NCI-H1703, the relative viability in the test with AZD5582 + Pictilisib (first compound 0.005 µM) was determined as 0.255; with AZD5582 + Pictilisib (first compound 0.01581 µM) it was 0.291; in the test with AZD5582 + Pictilisib (first compound 0.05 µM), 0.251; with Temozolomide + Olaparib (first compound 0.2 µM), 0.497; with Temozolomide + Olaparib (first compound 0.6325 µM), 0.43; with Temozolomide + Olaparib (first compound 2 µM) it was 0.469. In addition, the relative viability was 0.405 with Temozolomide + Olaparib (first compound 6.325 µM); 0.448 with Temozolomide + Olaparib (first compound 20 µM); 0.29 in test [1] (first compound 0.2 µM); 0.471 in test [1] (first compound 0.6325 µM); 0.365 in test [1] (first compound 2 µM); 0.241 in test [1] (first compound 6.325 µM). Further, the relative viability in test [1] (first compound 20 µM) is 0.284; in test [2] (first compound 0.2 µM) it was 0.863; in test [2] (first compound 0.6325 µM), 0.609; in test [2] (first compound 2 µM), 1.32; in test [2] (first compound 6.325 µM), 0.841; in test [2] (first compound 20 µM) it was 0.95.
